The values below come from patent US8114589B2, “Self-addressable self-assembling microelectronic integrated systems, component devices, mechanisms, methods, and procedures for molecular biological analysis and diagnostics” (Gamida For Life B.V., priority 1996, dated 2012).

Like-named read-outs stand apart in the source and are kept apart here. {Amino} = amino group added with ABI Aminolink 2 reagent, used to attach Texas Red

Series [1] deals with streptavidin/biotin DNA probe (Streptomyces avidinii, UniProt P22629). The series is described as follows: Streptavidin/biotin DNA probe capture affinity on the APEX chip. The series is classed as binding.
The conditions of series [2]: cited from earlier work; for pK1 / pK2 / pK3: Table 2.
A further series concerns DNA. As to the kind of experiment: DNA transport (accumulation) on the APEX chip. To be noted: in words, same field conditions.
A short description of series [3]: Buffer capacity, pH and conductivity of buffers used on the APEX chip. Particulars: for PH: NaPO4: 20 mM adjusted to pH 7.4.
Another series concerns Ras-G. As to the kind of experiment: Ras-12 single point mutation hybridization with 15-mer probes. It is filed as binding. An excerpt: In the Ras-12 example, 15-mer point mutation specific probes were electronically hybridized to 30-mer target sequences attached to the microlocations on test devices. The polarity at the microlocations was biased negative, and the hybrids were subjected to constant current for a given time, providing a defined power level which denatures the mis-match without affecting the perfect match.
Test devices were fabricated from microcapillary tubes as described previously in the specification. Attachment sequences Ras-G and Ras-T were periodate oxidized and covalently bound to the addressed microlocations.
Ras-G microlocation were then hybridized with Ras-1, Ras-2 or Ras-3. Ras-1 is the perfect match to Ras-G. Ras-2 is a one base pair mismatch (G-A). Ras-3 is a two base pair mismatch (G-A and G-T). The G-A mis-match produces the least destabilization to the DNA duplex, and is therefore the most difficult to distinquish from the perfect match.
Conventional hybridization was first carried out and the microlocations were examined fluorescently to measure to what extent complementary sequences were hybridized. The test devices (microcapillaries) were re-mounted and electronic hybridization was then carried out. […] The procedure and results are shown below: […]

In a further series the test system is ET-10AL capture sequence. As to the kind of experiment: Electronically controlled fluorescent DNA/dye (ethidium bromide) detection. It is filed as binding. To be noted: peak ethidium bromide fluorescence after positive bias 0.05 mA, 0.03 Volt-Hours; capture ET-10AL. Here is the method:
Microcapillary test devices were prepared and hybridized as described in Example 2 and 3. Ethidium bromide (EB) was added to the buffer solution (˜0.05 mM EB final concentration) and the test devices were biased negative to concentrate EB (positively charged) at both the hybridized and un-hybridized microlocations. The test devices were observed by epifluorescece microscopy at 550 nm excitation and 600 nm emission.
The test devices were re-mounted biased positive
constant current at 0.05 mA for 0.03 Volt-Hours, to selectively remove the EB. Fluorescence at the un-hybridized microlocations diminished while the hybridized microlocations retained a very high level of EB fluorescence. The results are given below:
Fluorescent signal was measured using an ICCD imaging

Series [4] concerns btrRCA5 to ATA5 capture oligonucleotide. The series is described as follows: Accumulation and electronic hybridization in test buffers. To be noted: in words. Here is the method: Microelectronic Chips, Permeation Layer and Instrumentation—These have been described previously with the following exception. The permeation layer employed herein has an underlayer of agarose beneath the top streptavidin-containing agarose layer (approximately one micron in total thickness). To make the underlayer, […] glyoxal agarose (2%) was spun on at 2000 rpms for 20 sec prior to the application of the streptavidin-agarose layer. In brief, the 5580 series APEX chip used for these experiments consists of a 5×5 array of […] circular microelectrodes with […] microelectrodes at each corner of the array. Chips were mounted on a micromanipulator stage and the microelectrodes activated by a power supply and appropriately controlled relay switches. Fluorescently labeled oligonucleotides on the chip were visualized using oblique illumination with two 594 nm HeNe lasers and the images were quantified using either NIH Image or IPLab Spectrum software packages.
Accumulation and Hybridization—Two biotinylated capture oligonucleotides, ATA5 and ATA4 were electronically transported and localized at adjacent microelectrodes. The solution was removed and the chip washed 3-4× in test buffer. Buffers employed in these studies are listed in Table 3 and were utilized at the listed pH values and concentrations presented.
The L-isomers of amino acids were used, unless otherwise noted. The chip was equilibrated in test buffer for 5-10 min. Then fresh buffer containing 10 nM BODIPY-Texas Red labeled RCA5 (btrRCA5), an oligonucleotide complementary to ATA5 but not ATA4 (RS paper) was applied.
The […] microelectrodes were employed as cathodes and one microelectrode within the array used as the corresponding anode. Accumulation was assessed by sourcing a 500 nA constant current to individual microelectrodes for 30 sec and monitoring the accumulation of fluorescence at the positively-biased (anode) site in the microelectrode array. Signal arising from non-fluorescent sources (ie. thermal noise, etc.) was subtracted. Experiments examining the effect of different currents upon signal accumulation were conducted in a similar fashion except that the applied current varied from 100 nA to 1 mA. […] For the comparison between conductivities of various buffers, the data is presented as fold increase over initial fluorescence to account for chip-to-chip variation as well as laser illumination variations in signal levels. For other experiments, the data is presented as attomol product versus time, after converting^2 the observed fluorescence intensity to moles of labeled oligonucleotide.
Following accumulation at one microelectrode location, the buffer was removed and fresh buffer containing btrRCA5 applied. An adjacent microelectrode was then sourced in a similar fashion. Upon completion, the buffer was removed and the chip washed 5-7× with test buffer without btrRCA5. The pair of previously targeted microelectrodes were then illuminated and the fluorescence present at each site quantified. Control experiments utilized a bodipy-Texas Red labeled oligonucleotide complementary to ATA4 to verify the integrity and concentration of the ATA4 capture oligonucleotide. Percent hybridization efficiency was calculated as follows: (complementary oligonucleotide signal−noncomplementary signal)/(signal present immediately prior to the end of the applied current)×100.

Series [5] has as its system btrRCA5 to ATA5. As to the kind of experiment: Passive hybridization at different pHs.
Description: Passive Hybridization at Different pHs—Biotinylated ATA5 and ATA4 were electronically targeted to adjacent sites upon streptavidin/agarose coated microarrays. […] A parallel hybridization was done in 6×SSC. After this hybridization period, the chips were washed in 0.2×STE, 0.1% sodium dodecyl sulfate, as above and the remaining fluorescence at each site quantitated. Fluorescence values present at ATA4 sites were subtracted from adjacent ATA5 sites and the remaining fluorescence converted to attomol btrRCA5 specifically hybridized. Additional experiments repeated this methodology and also examined buffer adjusted with concentrated acetic acid (at the pI and at pH 6 and 5).
Series [6] concerns btrRCA5 to ATA5. As to the kind of experiment: Passive hybridization versus electric field hybridization. Particulars: 50 mM.
Protocol: Passive Hybridization versus Electric Field Hybridization—ATA5 was electrically targeted to the first four columns of the microarray on streptavidin/agarose coated chips prepared as above, and ATA4 was targeted to the remaining column. For passive hybridization, either 5.0 nM or 0.5 nM btrRCA5 in 5×SSC (1×=0.15 M NaCl, 15 mM sodium citrate, pH 7.0) was applied for 1 min, then the chips were washed 6× in buffer and imaged. For the 3 min timepoint, fresh buffer containing btrRCA5 was applied and incubated for an additional 2 min to achieve 3 min cumulative incubation time. This approach was repeated for the remaining time points. […] Five sites, 4 with ATA5 previously attached and 1 with ATA4, were electronically targeted using 3.1 V total, (approximately 500 nA/site). […] In both passive and electric field mediated hybridization, the background signal present at the ATA4 sites was subtracted from the signal present at ATA5 sites.
In series [7] the test system is target DNA to the specific capture DNA. As to the kind of experiment: DNA hybridization sensitivity on the APEX chip. To be noted: normal DNA.
Series [8] deals with Reporter DNA to DNA1 or PNA1 capture. As to the kind of experiment: Hybridization of phosphodiester-linked oligonucleotides versus PNA analogues. To be noted: 200 nA versus 500 nA.

Sequence of streptavidin/biotin DNA probe (P22629 25-183, species assumed): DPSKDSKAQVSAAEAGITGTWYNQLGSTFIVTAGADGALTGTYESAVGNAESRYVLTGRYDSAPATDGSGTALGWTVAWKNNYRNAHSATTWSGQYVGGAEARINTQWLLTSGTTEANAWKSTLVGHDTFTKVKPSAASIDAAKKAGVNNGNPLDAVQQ

Take `NCCCC[C@H](N)C(=O)O` [Lysine]: in series [1], the “SA-Biotin T12 Sensitivity” value is given as >7.5 × 10^10. For the same compound, in [2], the pK1 entry is recorded as “pK1 - 2.2”, the pK2 result is “pK2 - 8.9”, the pK3 entry is listed as “pK3 - 10.3” and the pI is recorded as 9.74. Besides, the transport result in the series with DNA is “fair transport”. In [3], the conductivity is 477.0 μS and the PH amounted to 9.6.
Turning to “3′-CC-GCG-GCC-GCC-ACA-C-5′-(TR) (DNA CCGCGGCCGCCACAC; TR label, further chemistry not given here; listed 3' to 5') [Ras-1]”, the “signal ratio of perfect match (Ras-G/Ras-1) to 1 bp mis-match (Ras-G/Ras-2)” value in the series on Ras-G (conventional hybridization, 5×SSC 15 minutes 40° C., washes) is listed as “about 10 to 1”; in the series with Ras-G (electronic stringency control, 0.15 mA at 150 V for 4 minutes, 20° C.) it was more than 100 to 1.
As to “5′-Amino-CCT GCT CAT GAG TCT CTC (DNA CCTGCTCATGAGTCTCTC; DNA, 5' {Amino}, backbone not given here; further chemistry not fully specified) [ET-11AL]”, the “Normalized Signal” value in the series on ET-10AL capture sequence is recorded as more than 200.
In the case of `N[C@@H](Cc1c[nH]cn1)C(=O)O` [Histidine], the “SA-Biotin T12 Sensitivity” value in series [1] is on record as 3 × 10^6. Besides, the “support of sequence specific electronic hybridization” value in [4] was “demonstrated specific hybridization”. The passive hybridization result in the series with btrRCA5 to ATA5 [5] (at its pI (pH 7.5), 50 mM) is listed as “does not facilitate hybridization”. Also, in the series on btrRCA5 to ATA5 [5] (pH 6.0 and 5.0, 50 mM), the passive hybridization result is on record as “accelerated hybridization”. The “hybridization in the absence of an applied electric field” value in the series with btrRCA5 to ATA5 [6] is reported as “No hybridization was observed”. For the same compound, in series [7], the “Hybridization Sensitivity of DNA” value is listed as 3×10^6 targets. In [8], the “DNA:DNA hybridization” value is given as “only occurs well at 500 nA” and the “PNA:DNA hybridization” value is reported as “occurs at roughly equal efficiencies at either current”. Also, in series [2], the pK1 result is listed as “pK1 - 1.8”, the pK2 entry is recorded as “pK2 - 6.0”, the pK3 result is recorded as “pK3 - 9.0” and the pI is listed as 7.47. For the same compound, the transport result in the series with DNA is listed as “good transport”. In [3], this compound registered a conductivity of 212.0 μS and a PH of 7.6. In series [3] (hi purity), this compound came in with a conductivity of 172.0 μS. Further, under “200 nA”, the “pH of the solution” value is recorded as more than 6. Moreover, the “pH of the solution” value (500 nA) is more than 5. The “pH above the surface of the permeation layer” value (not told) was more than 5.
“5′-Amino-TGCGAGCTGCAGTCAGACAT (DNA TGCGAGCTGCAGTCAGACAT; DNA, 5' {Amino}, backbone not given here; further chemistry not fully specified) [ET-21A]”: the “Normalized Signal” value with ET-10AL capture sequence came to 1.
